Values after ≈ are worked out from the molar mass of the structure shown.
Key:
[1] = system: Staphylococcus epidermidis 222; assay: MIC, standard agar-dilution assay; format: cell-based; conditions: read-out: MIC
[2] = system: Haemophilus influenzae 76; assay: MIC, standard agar-dilution assay; format: cell-based; conditions: Haemophilus influenzae 76, Ampicillin-resistant strain; read-out: MIC
[3] = system: Staphylococcus aureus S13E; assay: MIC, standard agar-dilution assay; format: cell-based
Streptococcus pyogenes = assay: Experimental bacterial infection in mice, ED50; format: in vivo; conditions: Streptococcus pyogenes, po, two doses, dose protecting 50% of animals, read-out: Oral ED50
Experimental: (§1) The new derivatives of this invention have also shown in vivo antimicrobial activity against experimental bacterial infections. When two doses of test compound were administered to mice in experimental infections, the activity observed was measured as an EDso value [effective dose in mg/kg to protect 50% of the test animals: see Warren Wick, et al., J. Bacteriol. 81, 233-235 (1961)].

Staphylococcus aureus = assay: Experimental bacterial infection in mice, ED50; format: in vivo; conditions: Staphylococcus aureus, po, two doses, dose protecting 50% of animals, read-out: Oral ED50
Experimental: as §1

Streptococcus pneumoniae = assay: Experimental bacterial infection in mice, ED50; format: in vivo; conditions: Streptococcus pneumoniae, po, two doses, dose protecting 50% of animals, read-out: Oral ED50
Experimental: as §1

[4] = system: Streptococcus pneumoniae Park I; assay: MIC, standard agar-dilution assay; format: cell-based; conditions: read-out: MIC
[5] = system: Staphylococcus aureus X1.1; assay: MIC, standard agar-dilution assay; format: cell-based; conditions: read-out: MIC
[6] = system: Streptococcus pyogenes C203; assay: MIC, standard agar-dilution assay; format: cell-based; conditions: read-out: MIC
[7] = system: Streptococcus sp. group D 2041; assay: MIC, standard agar-dilution assay; format: cell-based; conditions: read-out: MIC
[8] = system: Staphylococcus aureus V41; assay: MIC, standard agar-dilution assay; format: cell-based; conditions: Staphylococcus aureus V41, Penicillin-resistant strain, inducibly-resistant to erythromycin; read-out: MIC
Text: (§2) In addition to excellent in vitro activity against erythromycin-sensitive bacteria, several members of this new series have shown in vitro activity against erythromycin-resistant strains. These include strains which are inducibly-resistant to erythromycin (S.. aureus V41 and X400 and S. epidermidis EPI1) and even strains which are constitutively-resistant (S. epidermidis 270).

[9] = system: Staphylococcus aureus X400; assay: MIC, standard agar-dilution assay; format: cell-based; conditions: Staphylococcus aureus X400, Methicillin-resistant strain, inducibly-resistant to erythromycin; read-out: MIC
Text: as §2

[10] = system: Haemophilus influenzae C.L.; assay: MIC, standard agar-dilution assay; format: cell-based; conditions: Ampicillin-sensitive strain, read-out: MIC
[11] = system: Streptococcus sp. group D X66; assay: MIC, standard agar-dilution assay; format: cell-based; conditions: Streptococcus sp. group D X66; read-out: MIC
[12] = system: Klebsiella pneumoniae X68; assay: MIC, standard agar-dilution assay; format: cell-based; conditions: read-out: MIC
Escherichia coli EC14 = assay: MIC, standard agar-dilution assay; format: cell-based; conditions: read-out: MIC

SMILES	MIC [1]	MIC [2]	MIC [3]	ED50 (Streptococcus pyogenes)	ED50 (Staphylococcus aureus)	ED50 (Streptococcus pneumoniae)	MIC [4]	MIC [5]	MIC [6]	MIC [7]	MIC [8]	MIC [9]	MIC [10]	MIC [11]	MIC [12]	MIC (Escherichia coli EC14)
CCCCCCCCCCN[C@@H]1[C@H](C)[C@@H](O)[C@](C)(O)[C@@H](CC)OC(=O)[C@H](C)[C@@H](O[C@H]2C[C@@](C)(OC)[C@@H](O)[C@H](C)O2)[C@H](C)[C@@H](O[C@@H]2O[C@H](C)C[C@H](N(C)C)[C@H]2O)[C@](C)(O)C[C@H]1C [Compound 9, 9-Deoxo-9-(n-decylamino)erythromycin]	1 µg/mL (≈ 1.14 µM)	1 µg/mL (≈ 1.14 µM)	0.5 µg/mL (≈ 0.571 µM)	> 50 mg/kg	> 50 mg/kg	> 50 mg/kg	0.015 µg/mL (≈ 0.0171 µM)	1 µg/mL (≈ 1.14 µM)	0.015 µg/mL (≈ 0.0171 µM)	2 µg/mL (≈ 2.29 µM)	4 µg/mL (≈ 4.57 µM)	8 µg/mL (≈ 9.14 µM)	2 µg/mL (≈ 2.29 µM)	0.25 µg/mL (≈ 0.286 µM)		
CCCCCCCCCCCCN[C@@H]1[C@H](C)[C@@H](O)[C@](C)(O)[C@@H](CC)OC(=O)[C@H](C)[C@@H](O[C@H]2C[C@@](C)(OC)[C@@H](O)[C@H](C)O2)[C@H](C)[C@@H](O[C@@H]2O[C@H](C)C[C@H](N(C)C)[C@H]2O)[C@](C)(O)C[C@H]1C [Compound 10, 9-Deoxo-9-(n-dodecylamino)erythromycin]	4 µg/mL (≈ 4.43 µM)	4 µg/mL (≈ 4.43 µM)	2 µg/mL (≈ 2.21 µM)	> 50 mg/kg	> 45 mg/kg	> 50 mg/kg	0.06 µg/mL (≈ 0.0664 µM)	4 µg/mL (≈ 4.43 µM)	0.5 µg/mL (≈ 0.554 µM)	8 µg/mL (≈ 8.86 µM)	8 µg/mL (≈ 8.86 µM)	8 µg/mL (≈ 8.86 µM)	8 µg/mL (≈ 8.86 µM)	1 µg/mL (≈ 1.11 µM)		
CC[C@H]1OC(=O)[C@H](C)[C@@H](O[C@H]2C[C@@](C)(OC)[C@@H](O)[C@H](C)O2)[C@H](C)[C@@H](O[C@@H]2O[C@H](C)C[C@H](N(C)C)[C@H]2O)[C@](C)(O)C[C@@H](C)[C@H](NCCC(C)C)[C@H](C)[C@@H](O)[C@]1(C)O [Compound 11, 9-Deoxo-9-[(3-methylbutyl)amino]erythromycin]	0.25 µg/mL (≈ 0.311 µM)	1 µg/mL (≈ 1.24 µM)	0.5 µg/mL (≈ 0.621 µM)	8.8 mg/kg	12.5 mg/kg	10.8 mg/kg	0.03 µg/mL (≈ 0.0373 µM)	1 µg/mL (≈ 1.24 µM)	0.06 µg/mL (≈ 0.0745 µM)	1 µg/mL (≈ 1.24 µM)			1 µg/mL (≈ 1.24 µM)	0.125 µg/mL (≈ 0.155 µM)	128 µg/mL (≈ 159 µM)	128 µg/mL (≈ 159 µM)
CC[C@H]1OC(=O)[C@H](C)[C@@H](O[C@H]2C[C@@](C)(OC)[C@@H](O)[C@H](C)O2)[C@H](C)[C@@H](O[C@@H]2O[C@H](C)C[C@H](N(C)C)[C@H]2O)[C@](C)(O)C[C@@H](C)[C@H](NCC2CCCCCCC2)[C@H](C)[C@@H](O)[C@]1(C)O [Compound 16, 9-Deoxo-9-[(cyclooctylmethyl)amino]erythromycin]	0.25 µg/mL (≈ 0.291 µM)	1 µg/mL (≈ 1.16 µM)	0.06 µg/mL (≈ 0.0698 µM)					0.5 µg/mL (≈ 0.582 µM)	< 0.008 µg/mL	1 µg/mL (≈ 1.16 µM)	64 µg/mL (≈ 74.5 µM)	64 µg/mL (≈ 74.5 µM)	1 µg/mL (≈ 1.16 µM)	< 0.008 µg/mL		64 µg/mL (≈ 74.5 µM)
CC[C@H]1OC(=O)[C@H](C)[C@@H](O[C@H]2C[C@@](C)(OC)[C@@H](O)[C@H](C)O2)[C@H](C)[C@@H](O[C@@H]2O[C@H](C)C[C@H](N(C)C)[C@H]2O)[C@](C)(O)C[C@@H](C)[C@H](NCC(C)(C)CO)[C@H](C)[C@@H](O)[C@]1(C)O [Compound 22, 9-Deoxo-9-[(3-hydroxy-2,2-dimethylpropyl)amino]erythromycin]	1 µg/mL (≈ 1.22 µM)	0.25 µg/mL (≈ 0.304 µM)	1 µg/mL (≈ 1.22 µM)	19.8 mg/kg	> 50 mg/kg	46.1 mg/kg	0.015 µg/mL (≈ 0.0183 µM)	1 µg/mL (≈ 1.22 µM)	0.03 µg/mL (≈ 0.0365 µM)	4 µg/mL (≈ 4.87 µM)			1 µg/mL (≈ 1.22 µM)	0.25 µg/mL (≈ 0.304 µM)	64 µg/mL (≈ 77.9 µM)	32 µg/mL (≈ 39 µM)
CC[C@H]1OC(=O)[C@H](C)[C@@H](O[C@H]2C[C@@](C)(OC)[C@@H](O)[C@H](C)O2)[C@H](C)[C@@H](O[C@@H]2O[C@H](C)C[C@H](N(C)C)[C@H]2O)[C@](C)(O)C[C@@H](C)[C@H](NCCOCCOC)[C@H](C)[C@@H](O)[C@]1(C)O [Compound 25, 9-Deoxo-9-[[2-(2-methoxyethoxy)ethyl]amino]erythromycin]	1 µg/mL (≈ 1.19 µM)	4 µg/mL (≈ 4.78 µM)	8 µg/mL (≈ 9.56 µM)	27.1 mg/kg	23.3 mg/kg	21.8 mg/kg	0.015 µg/mL (≈ 0.0179 µM)	1 µg/mL (≈ 1.19 µM)	0.125 µg/mL (≈ 0.149 µM)	8 µg/mL (≈ 9.56 µM)			2 µg/mL (≈ 2.39 µM)	0.25 µg/mL (≈ 0.299 µM)	128 µg/mL (≈ 153 µM)	64 µg/mL (≈ 76.5 µM)

Source: patent publication EP0238178B1, “Novel derivatives of erythromycylamine” (ELI LILLY AND COMPANY, priority 1986, dated 1987)
